Laboratory results published in patent US20080262071A1 (priority 2004, published 2008).
Like-named read-outs stand apart in the source and are kept apart here.

Experiments:
[1] = Single blind pilot study of pindolol in PMS (COPE diary, CGI); type: in vivo, human
Source text: A single blind pilot study to evaluate the safety, efficacy and tolerability of pindolol in PMS was initiated at one study centre. The trial objectives were to: […] […] Twenty subjects were recruited who met the criteria for inclusion in the study. After screening subjects underwent a one month assessment period with prospective diaries (COPE, Calendar of Premenstrual Events). By calculating the subjects COPE scores in the follicular and luteal phases, a diagnosis of late luteal phase dysphoric disorder could be made. All subjects then entered the single-blind placebo treatment period and the subjects' outcome at the end of this cycle acted as their baseline assessment. Subjects were then treated with pindolol for the next three cycles and assessed using the COPE. During this three month period, subjects may have a sequential increase in dose at monthly intervals from 15 to 25 mg/day to optimize response. Provision was made for dose decreases in case of tolerability concerns. Subjects were aware that they would receive three months of active and one month of placebo but were unaware of when the placebo was administered. […] Secondary efficacy measures included; mean change from the end of the placebo period in luteal phase total COPE score; mean change from end of the placebo period in luteal phase physical COPE symptoms; mean change from the end of the luteal phase behavioral symptoms; mean change from end of the placebo period in follicular phase total COPE score; CGI improvement score at each of the three menstrual cycles.

[2] = Blood pressure after single oral dose in healthy male volunteers; type: in vivo, human; conditions: healthy subjects
Method: Ten healthy male volunteers were tested on two separate occasions one week apart. On both occasions their blood pressure was measured at baseline.

[3] = biological target: T1, 5HT1a receptors (Homo sapiens, UniProt P08908); conditions: cited from earlier work
T1 construct: host or cells: human subjects, in vivo PET
T1 sequence (P08908 1-422): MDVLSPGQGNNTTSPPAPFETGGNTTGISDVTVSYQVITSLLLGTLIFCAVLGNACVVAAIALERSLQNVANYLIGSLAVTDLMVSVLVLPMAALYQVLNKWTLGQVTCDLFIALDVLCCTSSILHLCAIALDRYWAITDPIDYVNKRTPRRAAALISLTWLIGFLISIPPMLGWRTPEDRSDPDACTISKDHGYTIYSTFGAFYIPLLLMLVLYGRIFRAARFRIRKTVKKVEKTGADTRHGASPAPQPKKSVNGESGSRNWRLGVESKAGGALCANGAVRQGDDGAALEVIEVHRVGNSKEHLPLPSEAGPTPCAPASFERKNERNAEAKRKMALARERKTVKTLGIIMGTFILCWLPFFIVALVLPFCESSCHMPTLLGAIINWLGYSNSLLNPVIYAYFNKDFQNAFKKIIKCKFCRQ

[4] = man, after administration of the racemate; cited from earlier work
[5] = meta-analysis of 14 double-blind trials; cited from earlier work
[6] = luteal phase administration; cited from earlier work
[7] = PMS subjects; cited from earlier work
[8] = Case treatment of a person with premenstrual dysphoric disorder, daily symptom diary; type: in vivo, human; conditions: month 2, 5 mg three times daily throughout luteal phase
Source text: Patient was a person with a long history of premenstrual dysphoric disorder.
Throughout each cycle, a daily diary was used to document symptoms.

[9] = PMS subjects, three cycles of pindolol

With `CC(C)NCC(O)COc1cccc2[nH]ccc12` (racemic) [pindolol] the tolerability ([1]; 15 to 25 mg/day) was “very well tolerated”, the “withdrawals for unacceptable reductions in blood pressure” value ([1]; 15 to 25 mg/day) was “no withdrawals” and the CGI improvement [1, 9] was “improvement in CGI”. For the same compound, the “behavioral COPE scores” value [1, 9] was “Particularly significant decreases”, the “total COPE score” value ([1]; all patients treated with active drug, vs end of placebo period) was “decrease in the reduction of total COPE score” and the “total COPE score” value ([1]; patients on doses of 15 mg and above) was “Significant decreases”. For the same compound, the blood pressure ([2]; 10 mg orally) was “definite drop in blood pressure”, the diastolic blood pressure ([2]; 10 mg) was “definite drops in diastolic blood pressure” and the “occupancy of 5HT1a receptors” value ([3]; 2.5 mg) was “did not generate any significant occupancy”. The “occupancy of 5HT1a receptors” value ([3]; 5.0 mg) was 19% and the “differences between (−) and (+) pindolol in AUC, Cmax and t1/2 hrs” value [4] was “minor differences”.

For `CC(=O)[C@H]1CC[C@H]2[C@@H]3CCC4=CC(=O)CC[C@]4(C)[C@H]3CC[C@]12C` [Progesterone], the “difference from placebo treatment in PMS” value [5] is listed as “did not find a clinically significant difference”.

For `CNCCC(Oc1ccc(C(F)(F)F)cc1)c1ccccc1` (stereo not shown) [fluoxetine], the “efficacy in PMDD” value [6] is listed as “some efficacy”.

In the case of `CC(C)NCC(O)COc1ccc(CC(N)=O)cc1` (stereo not shown) [atenolol], the several other scales [7] is listed as “significant improvement was not found”.

For `CN[C@H]1CC[C@@H](c2ccc(Cl)c(Cl)c2)c2ccccc21` [sertraline], the “efficacy in PMDD” value [6] is listed as “some efficacy”.

For S-(−)-pindolol [(−) pindolol], the “mood and anxiety (daily diary)” value [8] was “helped improve mood and reduce anxiety”.
